Reference: patent publication US12404295B2, “(Hetero)aryl-methyl-thio-beta-D-galactopyranoside derivatives” (Idorsia Pharmaceuticals Ltd, priority 2019, dated 2025)
Like-named read-outs stand apart in the source and are kept apart here.

Assays:
[1] = target: human Gal-1 (hGal-1) (Homo sapiens (Human), UniProt P09382); experiment: competitive binding assay: biotinylated hGal-1 binding to microplate-adsorbed asialofetuin (ASF); conditions: Table 15; read-out: IC50 (Galectin-1 inhibition)
Outline: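 Spectrophotometric competition readout: after compound and biotinylated hGal-1 (300-1000 ng/mL) sit 3 h at 4° C on adsorbed asialofetuin, streptavidin-peroxidase (1 h, 4° C) and ABTS reveal residual binding. Reported IC50 values are means of repeat runs.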

[2] = target: human Gal-3 (hGal-3) (Homo sapiens (Human), UniProt P17931); experiment: competitive binding assay: biotinylated hGal-3 binding to microplate-adsorbed asialofetuin (ASF)
Outline: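 Serially diluted compounds compete with biotinylated hGal-3 binding to adsorbed asialofetuin (3 hours, 4° C). After washing, streptavidin-peroxidase at 80 ng/mL for 1 hour at 4° C, with ABTS colour read-out. IC50 values are averaged over repeated runs.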

[3] = Gal-3 inhibition, binding of biotinylated hGal-3 to ASF, mean values, read-out: IC50
[4] = Table 10, 2-OMe-Gal inhibitors, read-out: IC50 (Gal-3 inhibition)
[5] = Table 9, 2-OMe-Gal inhibitors, read-out: IC50 (Gal-3 inhibition)

Chain of human Gal-3 (hGal-3) (P17931 whole entry): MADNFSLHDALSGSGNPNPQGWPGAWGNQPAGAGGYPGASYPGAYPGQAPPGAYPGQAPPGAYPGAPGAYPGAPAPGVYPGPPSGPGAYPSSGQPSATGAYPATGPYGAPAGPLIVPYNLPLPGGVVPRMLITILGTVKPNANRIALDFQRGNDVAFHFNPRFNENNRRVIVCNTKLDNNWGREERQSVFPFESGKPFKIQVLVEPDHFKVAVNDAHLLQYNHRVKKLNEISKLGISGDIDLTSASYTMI
Chain of human Gal-1 (hGal-1) (P09382 whole entry): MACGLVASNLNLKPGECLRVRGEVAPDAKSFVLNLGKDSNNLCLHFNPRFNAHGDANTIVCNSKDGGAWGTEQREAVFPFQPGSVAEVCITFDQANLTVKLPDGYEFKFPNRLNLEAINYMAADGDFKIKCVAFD

SMILES	IC50 [1] [nM]	IC50 [2, 3] [nM]	IC50 [2, 4] [nM]	IC50 [2, 5] [nM]
CC(C)c1cccnc1[C@H](S[C@@H]1O[C@H](CO)[C@H](O)[C@H](n2cc(-c3cc(F)c(F)c(F)c3)nn2)[C@H]1O)C1(O)CCC(F)(F)CC1 [Example 2.44.132S., (2S,3R,4S,5R,6R)-2-(((S)-(4,4-Difluoro-1-hydroxycyclohexyl)(3-isopropylpyridin-2-yl)methyl)thio)-6-(hydroxymethyl)-4-(4-(3,4,5-trifluorophenyl)-1H-1,2,3-triazol-1-yl)tetrahydro-2H-pyran-3,5-diol]	4700	2270	–	–
OC[C@H]1O[C@@H](SC(c2nccnc2Cl)C2(O)CCC(F)(F)CC2)[C@H](O)[C@@H](n2cc(-c3cc(F)c(F)c(F)c3)nn2)[C@H]1O (stereo partly drawn) [Example 2.44.133., (2S,3R,4S,5R,6R)-2-(((3-Chloropyrazin-2-yl)(4,4-difluoro-1-hydroxycyclohexyl)methyl)thio)-6-(hydroxymethyl)-4-(4-(3,4,5-trifluorophenyl)-1H-1,2,3-triazol-1-yl)tetrahydro-2H-pyran-3,5-diol]	450	40	–	–
OC[C@H]1O[C@@H](S[C@H](c2nccnc2Cl)C2(O)CCC(F)(F)CC2)[C@H](O)[C@@H](n2cc(-c3cc(F)c(F)c(F)c3)nn2)[C@H]1O [Example 2.44.133R., (2S,3R,4S,5R,6R)-2-(((R)-(3-Chloropyrazin-2-yl)(4,4-difluoro-1-hydroxycyclohexyl)methyl)thio)-6-(hydroxymethyl)-4-(4-(3,4,5-trifluorophenyl)-1H-1,2,3-triazol-1-yl)tetrahydro-2H-pyran-3,5-diol]	160	20	–	–
OC[C@H]1O[C@@H](S[C@@H](c2nccnc2Cl)C2(O)CCC(F)(F)CC2)[C@H](O)[C@@H](n2cc(-c3cc(F)c(F)c(F)c3)nn2)[C@H]1O [Example 2.44.133S., (2S,3R,4S,5R,6R)-2-(((S)-(3-Chloropyrazin-2-yl)(4,4-difluoro-1-hydroxycyclohexyl)methyl)thio)-6-(hydroxymethyl)-4-(4-(3,4,5-trifluorophenyl)-1H-1,2,3-triazol-1-yl)tetrahydro-2H-pyran-3,5-diol]	15800	1830	–	–
OC[C@H]1O[C@@H](SC(c2ncccc2C2CC2)C2(O)CCC(F)(F)CC2)[C@H](O)[C@@H](n2cc(-c3cc(F)c(F)c(F)c3)nn2)[C@H]1O (stereo partly drawn) [Example 2.44.134., (2S,3R,4S,5R,6R)-2-(((3-Cyclopropylpyridin-2-yl)(4,4-difluoro-1-hydroxycyclohexyl)methyl)thio)-6-(hydroxymethyl)-4-(4-(3,4,5-trifluorophenyl)-1H-1,2,3-triazol-1-yl)tetrahydro-2H-pyran-3,5-diol]	140	70	–	–
OC[C@H]1O[C@@H](S[C@H](c2ncccc2C2CC2)C2(O)CCC(F)(F)CC2)[C@H](O)[C@@H](n2cc(-c3cc(F)c(F)c(F)c3)nn2)[C@H]1O [Example 2.44.134R., (2S,3R,4S,5R,6R)-2-(((R)-(3-Cyclopropylpyridin-2-yl)(4,4-difluoro-1-hydroxycyclohexyl)methyl)thio)-6-(hydroxymethyl)-4-(4-(3,4,5-trifluorophenyl)-1H-1,2,3-triazol-1-yl)tetrahydro-2H-pyran-3,5-diol]	50	10	–	–
OC[C@H]1O[C@@H](S[C@@H](c2ncccc2C2CC2)C2(O)CCC(F)(F)CC2)[C@H](O)[C@@H](n2cc(-c3cc(F)c(F)c(F)c3)nn2)[C@H]1O [Example 2.44.134S., (2S,3R,4S,5R,6R)-2-(((S)-(3-Cyclopropylpyridin-2-yl)(4,4-difluoro-1-hydroxycyclohexyl)methyl)thio)-6-(hydroxymethyl)-4-(4-(3,4,5-trifluorophenyl)-1H-1,2,3-triazol-1-yl)tetrahydro-2H-pyran-3,5-diol]	2700	700	–	–
Cc1ccnnc1C(S[C@@H]1O[C@H](CO)[C@H](O)[C@H](n2cc(-c3cc(F)c(F)c(F)c3)nn2)[C@H]1O)C1(O)CCC(F)(F)CC1 (stereo partly drawn) [Example 2.44.135., (2S,3R,4S,5R,6R)-2-(((4,4-Difluoro-1-hydroxycyclohexyl)(4-methylpyridazin-3-yl)methyl)thio)-6-(hydroxymethyl)-4-(4-(3,4,5-trifluorophenyl)-1H-1,2,3-triazol-1-yl)tetrahydro-2H-pyran-3,5-diol]	450	70	–	–
Cc1ccnnc1[C@@H](S[C@@H]1O[C@H](CO)[C@H](O)[C@H](n2cc(-c3cc(F)c(F)c(F)c3)nn2)[C@H]1O)C1(O)CCC(F)(F)CC1 [Example 2.44.135R., (2S,3R,4S,5R,6R)-2-(((R)-(4,4-Difluoro-1-hydroxycyclohexyl)(4-methylpyridazin-3-yl)methyl)thio)-6-(hydroxymethyl)-4-(4-(3,4,5-trifluorophenyl)-1H-1,2,3-triazol-1-yl)tetrahydro-2H-pyran-3,5-diol]	220	40	–	–
Cc1ccnnc1[C@H](S[C@@H]1O[C@H](CO)[C@H](O)[C@H](n2cc(-c3cc(F)c(F)c(F)c3)nn2)[C@H]1O)C1(O)CCC(F)(F)CC1 [Example 2.44.135S., (2S,3R,4S,5R,6R)-2-(((S)-(4,4-Difluoro-1-hydroxycyclohexyl)(4-methylpyridazin-3-yl)methyl)thio)-6-(hydroxymethyl)-4-(4-(3,4,5-trifluorophenyl)-1H-1,2,3-triazol-1-yl)tetrahydro-2H-pyran-3,5-diol]	5430	2790	–	–
CO[C@@H]1[C@@H](n2cc(-c3cc(F)c(F)c(F)c3)nn2)[C@@H](O)[C@@H](CO)O[C@H]1SC(c1c(C)cnn1C)C1(O)CCC(F)(F)CC1 (stereo partly drawn) [Example 2.44.136.I., (2R,3R,4S,5R,6S)-6-(((4,4-Difluoro-1-hydroxycyclohexyl)(1,4-dimethyl-1H-pyrazol-5-yl)methyl)thio)-2-(hydroxymethyl)-5-methoxy-4-(4-(3,4,5-trifluorophenyl)-1H-1,2,3-triazol-1-yl)tetrahydro-2H-pyran-3-ol]	2530	–	420	–

The next lines start with the values.

IC50 [1] [nM]	IC50 [2, 3] [nM]	IC50 [2, 4] [nM]	IC50 [2, 5] [nM]	SMILES
1220	–	170	–	CO[C@@H]1[C@@H](n2cc(-c3cc(F)c(F)c(F)c3)nn2)[C@@H](O)[C@@H](CO)O[C@H]1SC(c1nccnc1Cl)C1(O)CCC(F)(F)CC1 (stereo partly drawn) [Example 2.44.133.I., (2R,3R,4S,5R,6S)-6-(((3-Chloropyrazin-2-yl)(4,4-difluoro-1-hydroxycyclohexyl)methyl)thio)-2-(hydroxymethyl)-5-methoxy-4-(4-(3,4,5-trifluorophenyl)-1H-1,2,3-triazol-1-yl)tetrahydro-2H-pyran-3-ol]
660	–	40	–	CO[C@@H]1[C@@H](n2cc(-c3cc(F)c(F)c(F)c3)nn2)[C@@H](O)[C@@H](CO)O[C@H]1S[C@H](c1nccnc1Cl)C1(O)CCC(F)(F)CC1 [Example 2.44.133R.I., (2R,3R,4S,5R,6S)-6-(((R)-(3-Chloropyrazin-2-yl)(4,4-difluoro-1-hydroxycyclohexyl)methyl)thio)-2-(hydroxymethyl)-5-methoxy-4-(4-(3,4,5-trifluorophenyl)-1H-1,2,3-triazol-1-yl)tetrahydro-2H-pyran-3-ol [1,3-di-deoxy-1-((4,4-difluoro-1-hydroxy-cyclohexan-1-yl)-(3-(-chloro)pyrazin-2-yl)methyl-(R)-thio)-2-O-methyl-3-[4-(3,4,5-trifluorophenyl)-1H-1,2,3-triazol-1-yl]-b-D-galactopyranoside]]
7540	–	2710	–	CO[C@@H]1[C@@H](n2cc(-c3cc(F)c(F)c(F)c3)nn2)[C@@H](O)[C@@H](CO)O[C@H]1S[C@@H](c1nccnc1Cl)C1(O)CCC(F)(F)CC1 [Example 2.44.133S.I., (2R,3R,4S,5R,6S)-6-(((S)-(3-Chloropyrazin-2-yl)(4,4-difluoro-1-hydroxycyclohexyl)methyl)thio)-2-(hydroxymethyl)-5-methoxy-4-(4-(3,4,5-trifluorophenyl)-1H-1,2,3-triazol-1-yl)tetrahydro-2H-pyran-3-ol]
110	–	–	60	CO[C@@H]1[C@@H](n2cc(-c3cc(F)c(F)c(F)c3)nn2)[C@@H](O)[C@@H](CO)O[C@H]1S[C@H](c1ncccc1C1CC1)C1(O)CCC(F)(F)CC1 [Example 2.44.134R.I., (2R,3R,4S,5R,6S)-6-(((R)-(3-Cyclopropylpyridin-2-yl)(4,4-difluoro-1-hydroxycyclohexyl)methyl)thio)-2-(hydroxymethyl)-5-methoxy-4-(4-(3,4,5-trifluorophenyl)-1H-1,2,3-triazol-1-yl)tetrahydro-2H-pyran-3-ol [1,3-di-deoxy-1-((4,4-difluoro-1-hydroxy-cyclohexan-1-yl)-(3-(-cyclopropyl)pyridin-2-yl)methyl-(R)-thio)-2-O-methyl-3-[4-(3,4,5-trifluorophenyl)-1H-1,2,3-triazol-1-yl]-b-D-galactopyranoside]]
200	–	–	70	CO[C@@H]1[C@@H](n2cc(-c3cc(F)c(F)c(F)c3)nn2)[C@@H](O)[C@@H](CO)O[C@H]1S[C@H](c1nnccc1C)C1(O)CCC(F)(F)CC1 [Example 2.44.135R.I., (2R,3R,4S,5R,6S)-6-(((R)-(4,4-Difluoro-1-hydroxycyclohexyl)(4-methylpyridazin-3-yl)methyl)thio)-2-(hydroxymethyl)-5-methoxy-4-(4-(3,4,5-trifluorophenyl)-1H-1,2,3-triazol-1-yl)tetrahydro-2H-pyran-3-ol]
1900	–	260	–	CO[C@@H]1[C@@H](n2cc(-c3cc(F)c(F)c(F)c3)nn2)[C@@H](O)[C@@H](CO)O[C@H]1S[C@H](c1c(C)cnn1C)C1(O)CCC(F)(F)CC1 [Example 2.44.136R.I., (2R,3R,4S,5R,6S)-6-(((R)-(4,4-Difluoro-1-hydroxycyclohexyl)(1,4-dimethyl-1H-pyrazol-5-yl)methyl)thio)-2-(hydroxymethyl)-5-methoxy-4-(4-(3,4,5-trifluorophenyl)-1H-1,2,3-triazol-1-yl)tetrahydro-2H-pyran-3-ol]
